Here are results for 21 compounds from patent US11370803B2, “Heteroaryl plasma kallikrein inhibitors” (Takeda Pharmaceutical Company Limited, priority 2019, dated 2022).

pEC50: −log10 of the molar value. Some results are limits rather than exact numbers.

The pEC50 is the EC50 on a negative log10 scale, so that one unit is a factor of ten.

Sequence of human activated kallikrein enzyme (P03952 391-638): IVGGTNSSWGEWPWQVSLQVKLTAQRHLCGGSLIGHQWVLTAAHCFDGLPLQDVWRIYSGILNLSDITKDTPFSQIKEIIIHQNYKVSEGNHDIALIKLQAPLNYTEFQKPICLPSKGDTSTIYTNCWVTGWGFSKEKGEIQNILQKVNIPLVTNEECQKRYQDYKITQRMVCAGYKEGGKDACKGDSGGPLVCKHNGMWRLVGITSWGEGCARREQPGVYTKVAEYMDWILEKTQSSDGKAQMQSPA
Sequence of human activated kallikrein enzyme (P03952 20-390 partner): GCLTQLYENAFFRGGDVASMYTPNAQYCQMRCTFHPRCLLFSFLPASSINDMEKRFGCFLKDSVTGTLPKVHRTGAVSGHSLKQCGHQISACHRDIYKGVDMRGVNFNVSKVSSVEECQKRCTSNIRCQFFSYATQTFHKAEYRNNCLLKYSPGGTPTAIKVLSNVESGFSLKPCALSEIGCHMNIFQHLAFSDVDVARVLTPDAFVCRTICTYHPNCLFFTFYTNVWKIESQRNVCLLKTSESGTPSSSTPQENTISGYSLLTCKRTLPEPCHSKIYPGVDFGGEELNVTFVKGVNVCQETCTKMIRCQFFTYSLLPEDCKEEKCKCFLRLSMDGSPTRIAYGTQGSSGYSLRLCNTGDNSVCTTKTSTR

The experiment concerns the target human activated kallikrein enzyme (Homo sapiens (Human), UniProt P03952). Put plainly: Inhibition of human activated plasma kallikrein, fluorogenic peptide substrate assay (500 pM enzyme format). In kind it is biochemical. Particulars: 500 pM activated kallikrein, 300 uM Pro-Phe-Arg-7-amido-4-methylcoumarin substrate, 30 min preincubation, 10 min reaction at RT; read-out: Primary Dose Response Assay: Average EC50. The method, then:
Inhibitory Activity of Exemplary Compounds against Plasma Kallikrein. Example compounds were evaluated for inhibition of the human activated kallikrein enzyme in two formats of an assay employing a fluorogenic peptide substrate. In one assay format, the concentrations of reagents were as follows: 20 mM Tris pH 7.5, 1 mM EDTA, 150 mM sodium chloride, 0.1% PEG-400, 0.1% Triton X-100, 500 pM activated kallikrein enzyme, 300 uM Pro-Phe-Arg-7-amido-4-methylcoumarin substrate. Prior to reaction initiation with substrate, enzyme and inhibitors were preincubated for 30 min at RT. After initiation with substrate, reactions were incubated for 10 min at RT and fluorescence emission at 460 nm from 380 nm excitation measured with a microplate reader. In another assay format, the concentrations of reagents were as follows: 20 mM Tris pH 7.5, 1 mM EDTA, 150 mM sodium chloride, 0.1% PEG-400, 0.1% Triton X-100, 5 pM activated kallikrein enzyme, 300 uM Pro-Phe-Arg-7-amido-4-methylcoumarin substrate. Prior to reaction initiation with substrate, enzyme and inhibitors were preincubated for 30 min at RT. After initiation with substrate, reactions were incubated for 18 h at RT and fluorescence emission at 460 nm from 380 nm excitation measured with a microplate reader.
Table 1 provides the results of the assay in the format with 500 pM activated kallikrein assay. For the compounds listed in Table 1, the EC50 values are reported according to the following ranges: A≤50 nM; 50 nM<B≤200 nM; 200 nM<C≤1000 nM; 1000 nM<D.
In the case of `Fc1c(Cl)ccn2cnc(CNC(c3cnn(Cc4cn5cc(C6CC6)ccc5n4)c3)C(F)(F)F)c12` (stereo not drawn) [Compound I-16, N-((7-chloro-8-fluoroimidazo[1,5-a]pyridin-1-yl)methyl)-1-(1-((6-cyclopropylimidazo[1,2-a]pyridin-2-yl)methyl)-1H-pyrazol-4-yl)-2,2,2-trifluoroethan-1-amine], the pEC50 was not below 7.30.
`O=S(=O)(NCc1ncn2ccc(Cl)c(F)c12)c1cnn(Cc2cn3cc(C4CC4)ccc3n2)c1` [Compound I-4, N-((7-chloro-8-fluoroimidazo[1,5-a]pyridin-1-yl)methyl)-1-((6-cyclopropylimidazo[1,2-a]pyridin-2-yl)methyl)-1H-pyrazole-4-sulfonamide]: the pEC50 was 6.00 to 6.70.
As to `CCOC(=O)CCc1cc(C2CC2)cn2cc(Cn3cc(CNCc4ncn5ccc(Cl)c(F)c45)nn3)nc12` [Compound I-17a, Ethyl 3-(2-((4-((((7-chloro-8-fluoroimidazo[1,5-a]pyridin-1-yl)methyl)amino)methyl)-1H-1,2,3-triazol-1-yl)methyl)-6-cyclopropylimidazo[1,2-a]pyridin-8-yl)propanoate], the pEC50 was not below 7.30.
As to `O=S(=O)(NCc1ncn2ccc(Cl)c(F)c12)c1cn(Cc2cn3cc(C4CC4)ccc3n2)nn1` [Compound I-5, N-((7-chloro-8-fluoroimidazo[1,5-a]pyridin-1-yl)methyl)-1-((6-cyclopropylimidazo[1,2-a]pyridin-2-yl)methyl)-1H-1,2,3-triazole-4-sulfonamide], the pEC50 is 6.00 to 6.70.
As for `O=C(O)c1cc(C2CC2)cn2cc(Cn3cc(CNCc4ncn5ccc(Cl)c(F)c45)nn3)nc12` [Compound I-15, 2-((4-((((7-chloro-8-fluoroimidazo[1,5-a]pyridin-1-yl)methyl)amino)methyl)-1H-1,2,3-triazol-1-yl)methyl)-6-cyclopropylimidazo[1,2-a]pyridine-8-carboxylic Acid], the pEC50 is 6.00 to 6.70.
Consider `O=S(=O)(NCc1cn(Cc2cn3cc(C4CC4)ccc3n2)nn1)c1ncn2ccc(Cl)c(F)c12` [Compound I-6, 7-chloro-N-((1-((6-cyclopropylimidazo[1,2-a]pyridin-2-yl)methyl)-1H-1,2,3-triazol-4-yl)methyl)-8-fluoroimidazo[1,5-a]pyridine-1-sulfonamide], for which the negative-log EC50 (pEC50) was not below 7.30.
As to `CC(NCc1ncn2ccc(Cl)c(F)c12)c1cn(Cc2cn3cc(C4CC4)ccc3n2)nn1` (stereo not drawn) [Compound I-12, N-((7-chloro-8-fluoroimidazo[1,5-a]pyridin-1-yl)methyl)-1-(1-((6-cyclopropylimidazo[1,2-a]pyridin-2-yl)methyl)-1H-1,2,3-triazol-4-yl)ethan-1-amine], the pEC50 is 6.70 to 7.30.
Turning to `COC(=O)c1cc(C2CC2)cn2cc(Cn3cc(CNCc4ncn5ccc(Cl)c(F)c45)nn3)nc12` [Compound I-14, Methyl 2-((4-((((7-chloro-8-fluoroimidazo[1,5-a]pyridin-1-yl)methyl)amino)methyl)-1H-1,2,3-triazol-1-yl)methyl)-6-cyclopropylimidazo[1,2-a]pyridine-8-carboxylate], the pEC50 is not below 7.30.
Consider `CC(NC(=O)Cc1ncn2ccc(Cl)cc12)c1cn(Cc2cn3cc(C4CC4)ccc3n2)nn1` (stereo not drawn) [Compound I-13, 2-(7-chloroimidazo[1,5-a]pyridin-1-yl)-N-(1-(1-((6-cyclopropylimidazo[1,2-a]pyridin-2-yl)methyl)-1H-1,2,3-triazol-4-yl)ethyl)acetamide], for which the negative-log EC50 (pEC50) is not below 7.30.
Consider `O=C(NCc1cn(Cc2cn3cc(C4CC4)ccc3n2)nn1)c1ncn2ccc(Cl)c(F)c12` [Compound I-3, 7-chloro-N-((1-((6-cyclopropylimidazo[1,2-a]pyridin-2-yl)methyl)-1H-1,2,3-triazol-4-yl)methyl)-8-fluoroimidazo[1,5-a]pyridine-1-carboxamide], for which the pEC50 was 6.70 to 7.30.
For `Fc1c(Cl)ccn2cnc(C(NCc3cn(Cc4cn5cc(C6CC6)ccc5n4)nn3)C(F)(F)F)c12` (stereo not drawn) [Compound I-2, 1-(7-chloro-8-fluoroimidazo[1,5-a]pyridin-1-yl)-N-((1-((6-cyclopropylimidazo[1,2-a]pyridin-2-yl)methyl)-1H-1,2,3-triazol-4-yl)methyl)-2,2,2-trifluoroethan-1-amine], the pEC50 was less than 6.00.
Consider `O=C(Cc1ncn2ccc(Cl)cc12)NCc1cn(Cc2cn3cc(C4CC4)ccc3n2)nn1` [Compound I-1, 2-(7-chloroimidazo[1,5-a]pyridin-1-yl)-N-((1-((6-cyclopropylimidazo[1,2-a]pyridin-2-yl)methyl)-1H-1,2,3-triazol-4-yl)methyl)acetamide], for which the negative logarithm of the EC50 (pEC50) was not below 7.30.
For `O=C(NCc1ncn2ccc(Cl)c(F)c12)c1cnc2n1C(c1cn3cc(C4CC4)ccc3n1)CC2` (stereo not drawn) [Compound I-9, N-((7-chloro-8-fluoroimidazo[1,5-a]pyridin-1-yl)methyl)-5-(6-cyclopropylimidazo[1,2-a]pyridin-2-yl)-6,7-dihydro-5H-pyrrolo[1,2-a]imidazole-3-carboxamide], the pEC50 is 6.00 to 6.70.
Next, `O=C(Cc1ncn2ccc(Cl)cc12)NC(c1cnn(Cc2cn3cc(C4CC4)ccc3n2)c1)C(F)(F)F` (stereo not drawn) [Compound I-19, 2-(7-chloroimidazo[1,5-a]pyridin-1-yl)-N-(1-(1-((6-cyclopropylimidazo[1,2-a]pyridin-2-yl)methyl)-1H-pyrazol-4-yl)-2,2,2-trifluoroethyl)acetamide]: 6.70 to 7.30; `CN1CCN(c2cc(C3CC3)cn3cc(Cn4cc(C(=O)NCc5ncn6ccc(Cl)c(F)c56)nn4)nc23)CC1` [Compound I-20, N-((7-chloro-8-fluoroimidazo[1,5-a]pyridin-1-yl)methyl)-1-((6-cyclopropyl-8-(4-methylpiperazin-1-yl)imidazo[1,2-a]pyridin-2-yl)methyl)-1H-1,2,3-triazole-4-carboxamide]: not below 7.30.
For the compound `CC(NS(=O)(=O)c1ncn2ccc(Cl)c(F)c12)c1cn(Cc2cn3cc(C4CC4)ccc3n2)nn1` (stereo not drawn) [Compound I-7, 7-chloro-N-(1-(1-((6-cyclopropylimidazo[1,2-a]pyridin-2-yl)methyl)-1H-1,2,3-triazol-4-yl)ethyl)-8-fluoroimidazo[1,5-a]pyridine-1-sulfonamide], the pEC50 was not below 7.30.
For the compound `O=C(NCc1ncn2ccc(Cl)c(F)c12)c1cn2c(n1)CCC2c1cn2cc(C3CC3)ccc2n1` (stereo not drawn) [Compound I-8, N-((7-chloro-8-fluoroimidazo[1,5-a]pyridin-1-yl)methyl)-5-(6-cyclopropylimidazo[1,2-a]pyridin-2-yl)-6,7-dihydro-5H-pyrrolo[1,2-a]imidazole-2-carboxamide], the pEC50 was not below 7.30.
Turning to `O=C(O)CCc1cc(C2CC2)cn2cc(Cn3cc(CNCc4ncn5ccc(Cl)c(F)c45)nn3)nc12` [Compound I-17b, 3-(2-((4-((((7-chloro-8-fluoroimidazo[1,5-a]pyridin-1-yl)methyl)amino)methyl)-1H-1,2,3-triazol-1-yl)methyl)-6-cyclopropylimidazo[1,2-a]pyridin-8-yl)propanoic acid], the pEC50 is not below 7.30.
Regarding `Fc1c(Cl)ccn2cnc(CNCc3cn(Cc4cn5cc(C6CC6)cc(-n6cnnc6)c5n4)nn3)c12` [Compound I-18, 1-(7-chloro-8-fluoroimidazo[1,5-a]pyridin-1-yl)-N-((1-((6-cyclopropyl-8-(4H-1,2,4-triazol-4-yl)imidazo[1,2-a]pyridin-2-yl)methyl)-1H-1,2,3-triazol-4-yl)methyl)methanamine], the pEC50 is not below 7.30.
With `N#Cc1ccn2cnc(CNC(=O)c3cnn(Cc4cn5cc(C6CC6)ccc5n4)c3)c2c1` [Compound I-10, N-((7-cyanoimidazo[1,5-a]pyridin-1-yl)methyl)-1-((6-cyclopropylimidazo[1,2-a]pyridin-2-yl)methyl)-1H-pyrazole-4-carboxamide], the pEC50 is not below 7.30.
As to `Fc1c(Cl)ccn2cnc(CNCc3cn(Cc4cn5cc(C6CC6)ccc5n4)nn3)c12` [Compound I-11, 1-(7-chloro-8-fluoroimidazo[1,5-a]pyridin-1-yl)-N-((1-((6-cyclopropylimidazo[1,2-a]pyridin-2-yl)methyl)-1H-1,2,3-triazol-4-yl)methyl)methanamine], the pEC50 is not below 7.30.
